Data from patent US20200190062A1, “HETEROCYCLIC COMPOUND AND PHARMACEUTICAL COMPOSITION COMPRISING SAME” (BEYONDBIO INC., priority 2015, published 2020).
Counter-ions that a name gives are not always drawn.

Columns and labels:
Assay in all cases: Inhibition of cancer cell proliferation (MTT)
Format in all cases: cell-based, human
[1] = tested on: HCT116
Protocol: (§1) A test was conducted to confirm whether the compounds obtained in the above Examples can inhibit proliferation of human colon carcinoma cell line HCT116, glioblastoma cell lines U-87MG and T98G, neuroblastoma cell lines SH-SYSY and SK-N-SH, and lung cancer cell lines A549 and NCI-H23.
(§2) HCT116, U-87MG, SH-SYSY, SK-N-SH and A549 cells were culured in DMEM medium containing 10% FBS. T98G cells were cultured in MEM medium containing 10% FBS and NCI-H23 cells were cultured in […] medium containing 10% FBS. In order to analyze an inhibition of proliferation, HCT116 cells were dispensed in 2000 cells/well into 96 well plate, and SH-SYSY, SK-N-SH, U-87MG, T98G, A549, and NCI-H23 cells were dispensed in 3000 cells/well into 96 well plate. And then, the cells were cultured at 5% CO2 and 37° C. for 16 hrs to allow the cells to attach to the wells. The compounds of the above Examples were added to each well at a concentration of 0.004, 0.013, 0.04, 0.12, 0.37, 1.1, 3.3, and 10 uM, and the culture volume was adjusted to 100 ul. A control group was treated with dimethylsulfoxide (DMSO) at the same concentration, 0.08%, as used to treat the test compounds. Afterwards, cells were cultured at 5% CO2 and 37° C. for 72 hrs. And then, 10 ul of the solution of MTT (3-(4,5-dimethylthiazol-2-yl)-2,5-diphenyltetrazolium bromide) dissolved in PBS at 5 mg/ml was added to each well to identify viable cells and the cells were cultured for further 2 hrs. The culture solution was removed, 100 ul of DMSO was added to dissolve the formed formazan and then an absorbance was measured at 535 nm. Based on the absorbance of the control cells not treated with the compounds, the amounts of the viable cells according to the concentration of the compounds were calculated. GI50 (growth inhibition 50) value which is the concentration of the compound to inhibit cancer cell proliferation by 50% was calculated using Graphpad Prism 5.0 program.

[2] = tested on: A549
Protocol: as §1, §2

[3] = tested on: U-87MG
Protocol: as §1, §2

[4] = tested on: T98G
Protocol: as §1, §2

[5] = tested on: NCI-H23
Protocol: as §1, §2

For Cc1cnc(N)nc1-c1nc(-c2ccnc(N)c2F)ccc1O [Example 100, 2′-amino-6-(2-amino-5-methylpyrimidin-4-yl)-3′-fluoro-[2,4′-bipyridin]-5-ol 3hydrochloride], the GI50 ([1]; 72 hrs) was 30 nM, the GI50 ([2]; 72 hrs) was 70 nM and the GI50 ([3]; 72 hrs) was 60 nM. The GI50 ([4]; 72 hrs) was 50 nM and the GI50 ([5]; 72 hrs) was 70 nM.

With CCCN1CCC(c2nc(N)nc(-c3nc(-c4ccnc(N)c4F)ccc3O)c2C)CC1 [Example 44, 2′-amino-6-(2-amino-5-methyl-6-(1-propylpiperidin-4-yl)pyrimidin-4-yl)-3′-fluoro-[2,4′-bipyridin]-5-ol] the GI50 ([1]; Homo sapiens, HCT-116, 72 h) was 60 nM, the GI50 ([2]; Homo sapiens, A549, 72 h) was 140 nM and the GI50 ([3]; Homo sapiens, U-87 MG, 72 h) was 90 nM. For the same compound, the GI50 ([4]; Homo sapiens, T98G, 72 h) was 130 nM and the GI50 ([5]; 72 hrs) was 330 nM.

CCCN1CCC(c2cc(-c3nc(-c4ccnc(N)c4F)ccc3O)nc(N)n2)CC1 [Example 87, 2′-amino-6-(2-amino-6-(1-propylpiperidin-4-yl)pyrimidin-4-yl)-3′-fluoro-[2,4′-bipyridin]-5-ol 4hydrochloride] was tested, and the GI50 ([1]; 72 hrs) was 3 nM, the GI50 ([2]; 72 hrs) was 10 nM and the GI50 ([3]; 72 hrs) was 10 nM. It also gave a GI50 ([4]; 72 hrs) of 20 nM and a GI50 ([5]; 72 hrs) of 40 nM.

CCN1CCCC(c2cc(-c3nc(-c4ccnc(N)c4F)ccc3O)nc(N)n2)C1 (stereo not shown) [Example 90, 2′-amino-6-(2-amino-6-(1-ethylpiperidin-3-yl)pyrimidin-4-yl)-3′-fluoro-[2,4′-bipyridin]-5-ol 4hydrochloride] was tested, and the GI50 ([1]; 72 hrs) was 40 nM, the GI50 ([2]; 72 hrs) was 110 nM and the GI50 ([3]; 72 hrs) was 100 nM. The GI50 ([4]; 72 hrs) was 190 nM and the GI50 ([5]; 72 hrs) was 390 nM.

Compound CCc1c(-c2nc(-c3ccnc(N)c3F)ccc2O)nc(N)nc1C1CCN(C(C)C)CC1 [Example 49, 2′-amino-6-(2-amino-5-ethyl-6-(1-isopropylpiperidin-4-yl)pyrimidin-4-yl)-3′-fluoro-[2,4′-bipyridin]-5-ol] has a GI50 ([1]; Homo sapiens, HCT-116, 72 h) of 20 nM, a GI50 ([2]; Homo sapiens, A549, 72 h) of 50 nM and a GI50 ([3]; Homo sapiens, U-87 MG, 72 h) of 30 nM. For the same compound, the GI50 ([4]; Homo sapiens, T98G, 72 h) was 50 nM and the GI50 ([5]; Homo sapiens, NCI-H23, 72 h) was 70 nM.

Compound CCCc1c(-c2nc(-c3ccnc(N)c3F)ccc2O)nc(N)nc1C1CCN(C(C)C)CC1 [Example 106, 2′-amino-6-(2-amino-6-(1-isopropylpiperidin-4-yl)-5-propylpyrimidin-4-yl)-3′-fluoro-[2,4′-bipyridin]-5-ol 4hydrochloride] has a GI50 ([1]; 72 hrs) of 60 nM, a GI50 ([2]; 72 hrs) of 820 nM and a GI50 ([3]; 72 hrs) of 90 nM. For the same compound, the GI50 ([4]; 72 hrs) was 140 nM and the GI50 ([5]; 72 hrs) was 170 nM.

CCCN1CCCC(c2nc(N)nc(-c3nc(-c4ccnc(N)c4F)ccc3O)c2C)C1 (stereo not shown) [Example 98, 2′-amino-6-(2-amino-5-methyl-6-(1-propylpiperidin-3-yl)pyrimidin-4-yl)-3′-fluoro-[2,4′-bipyridin]-5-ol 4hydrochloride] was tested, and the GI50 ([1]; 72 hrs) was 890 nM, the GI50 ([2]; 72 hrs) was 1300 nM and the GI50 ([3]; 72 hrs) was 970 nM. The GI50 ([4]; 72 hrs) was 1750 nM and the GI50 ([5]; 72 hrs) was 2060 nM.

Compound Nc1nc(-c2nc(-c3ccnc(N)c3F)ccc2O)cc(C2CCOCC2)n1 [Example 32, 2′-amino-6-(2-amino-6-(tetrahydro-2H-pyran-4-yl)pyrimidin-4-yl)-3′-fluoro-[2,4′-bipyridin]-5-ol] has a GI50 ([1]; Homo sapiens, HCT-116, 72 h) of 30 nM, a GI50 ([2]; Homo sapiens, A549, 72 h) of 80 nM and a GI50 ([3]; Homo sapiens, U-87 MG, 72 h) of 100 nM. For the same compound, the GI50 ([4]; Homo sapiens, T98G, 72 h) was 110 nM and the GI50 ([5]; Homo sapiens, NCI-H23, 72 h) was 190 nM.

For CCCc1cnc(N)nc1-c1nc(-c2ccnc(N)c2F)ccc1O [Example 103, 2′-amino-6-(2-amino-5-propylpyrimidin-4-yl)-3′-fluoro-[2,4′-bipyridin]-5-ol 3hydrochloride], the GI50 ([1]; 72 hrs) was 10 nM, the GI50 ([2]; 72 hrs) was 10 nM and the GI50 ([3]; 72 hrs) was 10 nM. For the same compound, the GI50 ([4]; 72 hrs) was 10 nM and the GI50 ([5]; 72 hrs) was 20 nM.

Cc1c(-c2nc(-c3ccnc(N)c3F)ccc2O)nc(N)nc1C1CCN(C(C)C)CC1 [Example 96, 2′-amino-6-(2-amino-6-(1-isopropylpiperidin-4-yl)-5-methylpyrimidin-4-yl)-3′-fluoro-[2,4′-bipyridin]-5-ol 4hydrochloride] showed a GI50 ([1]; 72 hrs) of 60 nM, a GI50 ([2]; 72 hrs) of 130 nM and a GI50 ([3]; 72 hrs) of 80 nM. It also gave a GI50 ([4]; 72 hrs) of 190 nM and a GI50 ([5]; 72 hrs) of 210 nM.

For Nc1nc(-c2nc(-c3ccnc(N)c3F)ccc2O)cc(C2CCNCC2)n1 [Example 84, 2′-amino-6-(2-amino-6-(piperidin-4-yl)pyrimidin-4-yl)-3′-fluoro-[2,4′-bipyridin]-5-ol acetate], the GI50 ([1]; 72 hrs) was 60 nM, the GI50 ([2]; 72 hrs) was 220 nM and the GI50 ([3]; 72 hrs) was 180 nM. It also gave a GI50 ([4]; 72 hrs) of 290 nM and a GI50 ([5]; 72 hrs) of 2030 nM.

CCCN1CCC(c2cc(-c3nc(-c4ccnc(N)c4F)ccc3O)nc(N)n2)CC1 [Example 36, 2′-amino-6-(2-amino-6-(1-propylpiperidin-4-yl)pyrimidin-4-yl)-3′-fluoro-[2,4′-bipyridin]-5-ol] showed a GI50 ([1]; 72 hrs) of 10 nM, a GI50 ([2]; Homo sapiens, A549, 72 h) of 20 nM and a GI50 ([3]; Homo sapiens, U-87 MG, 72 h) of 10 nM. It also gave a GI50 ([4]; Homo sapiens, T98G, 72 h) of 20 nM and a GI50 ([5]; Homo sapiens, NCI-H23, 72 h) of 50 nM.

In the case of Cc1c(-c2nc(-c3ccnc(N)c3F)ccc2O)nc(N)nc1C1CCCN(C)C1 (stereo not shown) [Example 46], the GI50 ([1]; Homo sapiens, HCT-116, 72 h) is reported as 140 nM, the GI50 ([2]; Homo sapiens, A549, 72 h) is reported as 210 nM and the GI50 ([3]; Homo sapiens, U-87 MG, 72 h) is reported as 150 nM. It also gave a GI50 ([4]; Homo sapiens, T98G, 72 h) of 250 nM and a GI50 ([5]; Homo sapiens, NCI-H23, 72 h) of 410 nM.

Compound Cc1nc(N)nc(-c2nc(-c3ccnc(N)c3F)ccc2O)c1C [Example 101, 2′-amino-6-(2-amino-5,6-dimethylpyrimidin-4-yl)-3′-fluoro-[2,4′-bipyridin]-5-ol 3hydrochloride] has a GI50 ([1]; 72 hrs) of 60 nM, a GI50 ([2]; 72 hrs) of 120 nM and a GI50 ([3]; 72 hrs) of 230 nM. The GI50 ([4]; 72 hrs) was 290 nM and the GI50 ([5]; 72 hrs) was 230 nM.

Compound Nc1nc(-c2nc(-c3ccnc(N)c3F)ccc2O)cc(C2CCOCC2)n1 [Example 85, 2′-amino-6-(2-amino-6-(tetrahydro-2H-pyran-4-yl)pyrimidin-4-yl)-3′-fluoro-[2,4′-bipyridin]-5-ol 3hydrochloride] has a GI50 ([1]; 72 hrs) of 20 nM, a GI50 ([2]; 72 hrs) of 60 nM and a GI50 ([3]; 72 hrs) of 70 nM. It also gave a GI50 ([4]; 72 hrs) of 90 nM and a GI50 ([5]; 72 hrs) of 140 nM.

In the case of CNc1nc(-c2nc(-c3ccnc(N)c3F)ccc2O)cc(C2CCN(C)CC2)n1 [Example 59, 2′-amino-3′-fluoro-6-(2-(methylamino)-6-(1-methylpiperidin-4-yl)pyrimidin-4-yl)-[2,4′-bipyridin]-5-ol], the GI50 ([1]; Homo sapiens, HCT-116, 72 h) is reported as 40 nM, the GI50 ([2]; Homo sapiens, A549, 72 h) is reported as 70 nM and the GI50 ([3]; Homo sapiens, U-87 MG, 72 h) is reported as 70 nM. It also gave a GI50 ([4]; Homo sapiens, T98G, 72 h) of 110 nM and a GI50 ([5]; Homo sapiens, NCI-H23, 72 h) of 130 nM.

For CCN1CCC(c2nc(N)nc(-c3nc(-c4ccnc(N)c4F)ccc3O)c2C)CC1 [Example 43, 2′-amino-6-(2-amino-6-(1-ethylpiperidin-4-yl)-5-methylpyrimidin-4-yl)-3′-fluoro-[2,4′-bipyridin]-5-ol], the GI50 ([1]; Homo sapiens, HCT-116, 72 h) was 230 nM, the GI50 ([2]; Homo sapiens, A549, 72 h) was 460 nM and the GI50 ([3]; Homo sapiens, U-87 MG, 72 h) was 280 nM. It also gave a GI50 ([4]; Homo sapiens, T98G, 72 h) of 460 nM and a GI50 ([5]; Homo sapiens, NCI-H23, 72 h) of 960 nM.

In the case of CCCN1CCCC(c2nc(N)nc(-c3nc(-c4ccnc(N)c4F)ccc3O)c2C)C1 (stereo not shown) [Example 47, 2′-amino-6-(2-amino-5-methyl-6-(1-propylpiperidin-3-yl)pyrimidin-4-yl)-3′-fluoro-[2,4′-bipyridin]-5-ol], the GI50 ([1]; Homo sapiens, HCT-116, 72 h) is reported as 810 nM, the GI50 ([2]; Homo sapiens, A549, 72 h) is reported as 1440 nM and the GI50 ([3]; Homo sapiens, U-87 MG, 72 h) is reported as 1090 nM. For the same compound, the GI50 ([4]; Homo sapiens, T98G, 72 h) was 1410 nM and the GI50 ([5]; Homo sapiens, NCI-H23, 72 h) was 2230 nM.

CCc1c(-c2nc(-c3ccnc(N)c3F)ccc2O)nc(N)nc1C1CCN(C(C)C)CC1 [Example 105] gave a GI50 ([1]; 72 hrs) of 30 nM, a GI50 ([2]; 72 hrs) of 60 nM and a GI50 ([3]; 72 hrs) of 40 nM. The GI50 ([4]; 72 hrs) was 60 nM and the GI50 ([5]; 72 hrs) was 90 nM.

Cc1c(-c2nc(-c3ccnc(N)c3F)ccc2O)nc(N)nc1C1CCN(C)CC1 [Example 42, 2′-amino-6-(2-amino-5-methyl-6-(1-methylpiperidin-4-yl)pyrimidin-4-yl)-3′-fluoro-[2,4′-bipyridin]-5-ol] was tested, and the GI50 ([1]; 72 hrs) was 180 nM, the GI50 ([2]; 72 hrs) was 380 nM and the GI50 ([3]; 72 hrs) was 270 nM. The GI50 ([4]; 72 hrs) was 400 nM and the GI50 ([5]; 72 hrs) was 890 nM.
